# Test results published in patent publication US20190060257A1, “ANALGESIC COMPOUNDS” (ZENO ROYALTIES & MILESTONES, LLC, priority 2016, published 2019).
# Tested on: male ICR mice
# Experiment: Formalin Paw Test
# Assay type: in vivo, mouse
# Details: 30 mg/kg, intraperitoneal administration; for Early Phase: early/acute phase (0-10 minutes) after 2% formalin into hind paw; for Late Phase: late/tonic phase (10-35 minutes) after 2% formalin into hind paw
# Protocol: One test compound or the vehicle was administered to each mouse in each test group (8 mice per group). Non-fasted male ICR mice weighing 23±3 g were used. Test compounds were administered at a concentration of 3 mg/kg, 10 mg/kg, 15 mg/kg, 30 mg/kg, 60 mg/kg, 100 mg/kg, 200 mg/kg or 300 mg/kg; morphine was administered at a concentration of 5 mg/kg; and acetaminophen was administered at a concentration of 200 mg/kg. The control group received the vehicle (5% DMSO/40% PEG400/20% HPbCD/Saline). After 30 or 60 minutes, a 2% formalin solution (0.02 mL) was injected into one hind paw (sub-plantar) of each mouse. Responses were measured every 5 minutes after the formalin injection for 35 minutes.
# The results in Table A are for intraperitoneal administration. In Table A, ‘A’ designates <70 licks/sec, ‘B’ designates ≥70 licks/sec and <165 licks/sec, and ‘C’ designates ≥165 licks/sec.
SMILES,Early Phase,Late Phase
NC1CC(F)(F)C1 [Compound 2],B (‘B’ designates ≥70 licks/sec and <165 licks/sec),B (‘B’ designates ≥70 licks/sec and <165 licks/sec)
NCC1CC(F)(F)C1 [Compound 6],B (‘B’ designates ≥70 licks/sec and <165 licks/sec),B (‘B’ designates ≥70 licks/sec and <165 licks/sec)
NC1CCC(F)(F)C1 (centres unmarked) [Compound 8],B (‘B’ designates ≥70 licks/sec and <165 licks/sec),B (‘B’ designates ≥70 licks/sec and <165 licks/sec)
NC1CCC(F)(F)CC1 [Compound 9],A (‘A’ designates <70 licks/sec),A (‘A’ designates <70 licks/sec)
NC1CCCC(C(F)(F)F)C1 (centres unmarked) [Compound 10],A (‘A’ designates <70 licks/sec),A (‘A’ designates <70 licks/sec)
NC1CCCCCC1 [Compound 11],A (‘A’ designates <70 licks/sec),C (‘C’ designates ≥165 licks/sec)
NC1CC2(C1)CC(N)C2 (centres unmarked) [Compound 13],B (‘B’ designates ≥70 licks/sec and <165 licks/sec),B (‘B’ designates ≥70 licks/sec and <165 licks/sec)
NC1CC2(C1)CC(O)C2 (centres unmarked) [Compound 14],B (‘B’ designates ≥70 licks/sec and <165 licks/sec),B (‘B’ designates ≥70 licks/sec and <165 licks/sec)
NC12CCC(C(F)(F)F)(CC1)CC2 [Compound 18],B (‘B’ designates ≥70 licks/sec and <165 licks/sec),B (‘B’ designates ≥70 licks/sec and <165 licks/sec)
CC12CC3CC(C)(C1)CC(N)(C3)C2 [Compound 19],A (‘A’ designates <70 licks/sec),A (‘A’ designates <70 licks/sec)
NC12CC3CC(C1)CC(C(F)(F)F)(C3)C2 [Compound 20],A (‘A’ designates <70 licks/sec),A (‘A’ designates <70 licks/sec)
N[C@H]1C[C@@H](O)C1 [cis-1],B (‘B’ designates ≥70 licks/sec and <165 licks/sec),C (‘C’ designates ≥165 licks/sec)
N[C@H]1C[C@H](O)C1 [trans-1],B (‘B’ designates ≥70 licks/sec and <165 licks/sec),C (‘C’ designates ≥165 licks/sec)
